Counter-ions that a name gives are not always drawn. Like-named read-outs stand apart in the source and are kept apart here.
Assays:
[1] = system: Human chymase-overexpressing mice (TGM); test: Angiotensin-elicited blood pressure increase model using chymase-overexpressing mice; assay type: in vivo; details: continuous angiotensin I infusion; for suppression of vasopressor effect (blood pressure): compared to control group, combination normal from 10th day, P<0.05
Procedure: Human chymase-overexpressing mice (hereinafter abbreviated as “TGM”) created by introduction of the human chymase gene with an angiotensin II-producing function were used as the model animals. Specifically, 8- to 10-week-old TGM mice were used, and angiotensin I was continuously infused with a microosmostic pump embedded under the mouse skin (70 μg/kg/min) to create continuous hypertensive mouse models. The continuous infusion of angiotensin I was confirmed to elicit a vasopressor response of about 30 mmHg in the TGM (n=6) with respect to the wild type (n=8), while depressor action was examined in groups administered a chymase inhibitor (Compound No. 33, 0.1% diet, n=7), an ACE inhibitor (temocapril hydrochloride, 2.0 mg/kg/day, n=6), an angiotensin receptor blocker (ARB) (Valsartan, 14 mg/kg/day, n=7) and a chymase inhibitor and ACE inhibitor simultaneously (Compound No. 33, 0.1% diet, and temocapril hydrochloride, 2.0 mg/kg/day, n=6). The letter “n” indicates the number of individuals. […] […].

human mast cell chymase = target: T1, human mast cell chymase (Homo sapiens, UniProt P23946); test: Recombinant human mast cell chymase enzymatic activity inhibition; assay type: biochemical
T1 construct: made in house; host or cells: insect cells (Th5), recombinant baculovirus
T1 sequence (P23946 22-247): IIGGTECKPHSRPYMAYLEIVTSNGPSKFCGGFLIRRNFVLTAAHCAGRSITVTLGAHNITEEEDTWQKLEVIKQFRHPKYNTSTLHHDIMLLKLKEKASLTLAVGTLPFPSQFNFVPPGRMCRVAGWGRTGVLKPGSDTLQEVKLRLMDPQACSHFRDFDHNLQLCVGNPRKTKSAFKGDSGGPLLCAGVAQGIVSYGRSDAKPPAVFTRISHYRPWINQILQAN
Procedure: Specifically, Heparin Sepharose (Pharmacia) was used for purification from a culture supernatant of insect cells (Th5) infected with recombinant baculovirus containing cDNA coding for human mast cell chymase.
The time-related change in absorbance at 405 nm was measured to determine the inhibiting activity.

hamster chymase 1 = hamster chymase 1 (Mesocricetus auratus, UniProt O08732); test: Chymase-inhibiting activity using hamster chymase; assay type: biochemical; details: Compound No. 33; read-out: Inhibition constant, Hamster chymase
Sequence of hamster chymase 1 (O08732 entry or part of it): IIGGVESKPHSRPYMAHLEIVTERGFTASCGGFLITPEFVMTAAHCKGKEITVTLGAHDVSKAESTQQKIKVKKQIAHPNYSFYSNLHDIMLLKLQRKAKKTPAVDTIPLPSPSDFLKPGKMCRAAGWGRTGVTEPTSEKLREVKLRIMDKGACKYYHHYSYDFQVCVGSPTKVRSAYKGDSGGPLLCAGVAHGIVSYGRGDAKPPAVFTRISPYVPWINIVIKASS
Procedure: After adding 2 μl of a DMSO solution containing a compound of the invention to 50 μl of Buffer A (0.5-3.0 M NaCl, 50 mM Tris-HCl, pH 8.0) containing 1-5 ng of the active form human mast cell chymase obtained in Example 1, there was added 50 μl of Buffer A containing 0.5 mM succinyl-alanyl-histidyl-prolyl-phenylalanylparanitroanilide (Bachem) as a substrate, and reaction was conducted at room temperature for 5 minutes. The time-related change in absorbance at 405 nm was measured to determine the inhibiting activity.
Hamster chymase was obtained from a crude product extracted from hamster tongue tissue with an acidic buffer solution and subsequently purified with a Phenyl-Sepharose column (elution: 0.15 M NaCl, 50 mM sodium phosphate, pH 6.5, 50% ethylene glycol) and a Heparin-Cellulofine column (elution: 0.5-2.0 M NaCl). The protein was identified as hamster chymase 1 based on the N-terminal amino acid sequence, and activity inhibition was measured by the same method as for the human chymase.

Mouse chymase = test: Enzyme selectivity: mouse chymase inhibition; assay type: biochemical; details: Compound No. 33; read-out: Inhibition constant, Mouse chymase
Chymotrypsin = Chymotrypsin (Bos taurus, UniProt P00766); test: Enzyme selectivity: chymotrypsin inhibition; assay type: biochemical; details: Compound No. 33; read-out: Inhibition constant, Chymotrypsin
Trypsin = target: T2, Trypsin (Bos taurus, UniProt P00760); test: Enzyme selectivity: trypsin inhibition; assay type: biochemical; details: Compound No. 33; read-out: Inhibition constant, Trypsin
T2 construct: gene PRSS1
T2 sequence (P00760 24-246): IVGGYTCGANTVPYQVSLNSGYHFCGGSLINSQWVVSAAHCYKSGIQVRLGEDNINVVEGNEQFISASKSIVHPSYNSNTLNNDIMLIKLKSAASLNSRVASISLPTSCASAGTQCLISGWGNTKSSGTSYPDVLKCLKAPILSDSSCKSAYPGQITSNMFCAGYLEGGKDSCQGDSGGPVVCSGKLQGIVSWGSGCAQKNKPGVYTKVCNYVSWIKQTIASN

Human tryptase = Human tryptase (Homo sapiens, UniProt Q15661); test: Enzyme selectivity: human tryptase inhibition; assay type: biochemical; details: Compound No. 33; read-out: Inhibition constant, Human tryptase
Sequence of Human tryptase (Q15661 31-275): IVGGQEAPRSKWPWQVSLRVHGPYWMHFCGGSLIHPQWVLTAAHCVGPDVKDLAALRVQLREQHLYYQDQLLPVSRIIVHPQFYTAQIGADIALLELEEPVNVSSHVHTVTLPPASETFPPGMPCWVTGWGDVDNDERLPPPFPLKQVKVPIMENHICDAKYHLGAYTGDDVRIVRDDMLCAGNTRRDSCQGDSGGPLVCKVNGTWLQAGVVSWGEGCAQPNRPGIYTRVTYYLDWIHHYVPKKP

[2] = Blood drug concentrations upon oral administration to hamsters; assay type: in vivo; details: hamster, serum, 0.1% (w/w) in feed for 5 days, mean±S.E., N=4, read-out: hamster serum concentration of the parent drug
Procedure: The chymase inhibitor designated as Compound No. 33 was mixed with MF powder feed to a content of 0.1% (w/w) to prepare a hamster feed which was given to hamsters for 5 days. Blood was sampled from the abdominal aorta under ether anesthesia, the serum was extracted, and the serum compound concentrations were measured by high-performance liquid chromatography.

hamster chymase = test: Accelerated vascular permeation model by intradermal injection of hamster chymase; assay type: in vivo, Syrian hamsters; details: 0.1% (w/w) in feed for 5 days; Evans Blue, 30 minutes after intradermal hamster chymase
Procedure: Compound No. 33 was mixed with powder feed to a content of 0.1% (w/w) to prepare a feed which was given to hamsters (Syrian hamsters, male, 7-week-old) for 5 days. Under ether anesthesia, the hamster backs were shaved and the hamster chymase was intradermally injected (hamster chymase: 1, 0.3, 0.1 μg/site; vehicle: 0.15 M NaCl, 0.1 mg/ml BSA, 10 mM Pi-Na, pH 7.0). Evans Blue (1% (w/v) solution, 5 ml/kg) was intravenously administered just prior to the intradermal injection, and the blue spots produced by chymase intradermal injection were quantified. Specifically, the hamsters were bled to death from the abdominal aorta 30 minutes after intradermal injection, and the skin was sampled using the blueing spots as an index. The sampled skin was placed in a glass test tube, the dye was extracted with 2 ml of EB extract (acetone:0.3% Na2SO4=7:3), and the dye leakage was measured by colorimetry using a spectrophotometer (620 nm).

chymase = details: WO00/51640, J. Med. Chem., 2001, Vol. 44, p. 1286; cited from earlier work
[3] = system: hamster myocardial infarction models; details: Life Sci. 2002, Vol. 71, p. 437; cited from earlier work
[4] = system: canine myocardial infarction models; details: 75th Annual Meeting of the Japanese Pharmacological Society; cited from earlier work
[5] = recombinant active form human mast cell chymase, room temperature 5 minutes, absorbance 405 nm, read-out: IC50, human mast cell chymase inhibiting activity
[6] = stated in parentheses for Compounds A and B, read-out: human chymase IC50 (reference compounds)

Q: With `CCOC(=O)[C@H](CCc1ccccc1)N[C@H]1CS[C@H](c2cccs2)CN(CC(=O)O)C1=O` [temocapril hydrochloride] as the compound, how does the “suppression of cardiac hypertrophy” value [1] read?
A: no notable suppression

Q: What about the “suppression of vasopressor effect (blood pressure)” value [1] of the same compound?
A: no notable suppression

Q: Which Ki (human mast cell chymase; Compound No. 33, read-out: Inhibition constant, Human chymase) does the source give for `O=C(O)CCCSc1nc2ccccc2n1Cc1cccc2ccccc12` [Compound No. 33] here?
A: 6.2 ± 2.2 nM

Q: What about the IC50 (human mast cell chymase; [5]) of the same compound?
A: 10 to 100 nM

Q: And the Ki (hamster chymase 1)?
A: 30.6 ± 3.8 nM

Q: What about the Ki (Mouse chymase) of the same compound?
A: 73.4 ± 24.2 nM

Q: What about the Ki (Chymotrypsin) of the same compound?
A: > 10000 nM

Q: What about the Ki (Trypsin) of the same compound?
A: > 10000 nM

Q: What about the Ki (Human tryptase) of the same compound?
A: > 10000 nM

Q: What about the concentration at 5 days [2] of the same compound?
A: 7.89 ± 1.09 µM

Q: And the “dye leakage (accelerated vascular permeation)” value (“dye leakage” below) (hamster chymase)?
A: decrease in dye leakage

Q: And the “suppression of cardiac hypertrophy” value [1]?
A: no notable suppression

Q: And the “suppression of vasopressor effect (blood pressure)” value [1]?
A: no notable suppression

Q: With `O=C(O)CCCSc1nc2ccccc2n1Cc1csc2ccccc12` [compound 20] as the compound, how does the IC50 (human mast cell chymase; [5]) read?
A: 10 to 100 nM

Q: Which “chymase inhibiting activity by oral administration to mouse allergy models” value (chymase) does the source give for `COC(=O)c1ccc2oc(C(=O)C(Cc3ccccc3)NC(=O)Cn3c(-c4ccccc4OC)ncc(N)c3=O)nc2c1` (stereo not shown) [formula (IV-I)] here?
A: exhibit chymase inhibiting activity

Q: For `Cc1ccc2scc(Cn3c(SCCCC(=O)O)nc4cc(C)c(C)cc43)c2c1` [compound 204], which IC50 (human mast cell chymase; [5]) is on record?
A: 10 to 100 nM

Q: For `Cc1cc2nc(SCCCC(=O)O)n(Cc3csc4ccccc34)c2cc1C` [compound 200], which IC50 (human mast cell chymase; [5]) is on record?
A: 10 to 100 nM

Q: With `Cn1cc(Cn2c(SCCCC(=O)O)nc3ccccc32)c2c(F)cccc21` [compound 10] as the compound, how does the IC50 (human mast cell chymase; [5]) read?
A: 10 to 100 nM

Q: For `Cc1cc(C)c2c(Cn3c(SCCCC(=O)O)nc4ccccc43)csc2c1` [compound 31], which IC50 (human mast cell chymase; [5]) is on record?
A: 10 to 100 nM

Q: With `COc1ccc2c(c1)nc(SCCCC(=O)O)n2Cc1csc2ccccc12` [compound 56] as the compound, how does the IC50 (human mast cell chymase; [5]) read?
A: 10 to 100 nM

Q: With `CCOc1ccccc1CC1C(=O)N(C(=O)NC(c2ccc(C)cc2)c2ccc(C)cc2)C1Oc1ccc(C(=O)O)cc1` (stereo not shown) [4-[1-{[bis(4-methylphenyl)methyl]carbamoyl}-3-(2-ethoxybenzyl)-4-oxoazetidin-2-yloyl]benzoic acid] as the compound, how does the “effect when administered alone to hamster myocardial infarction models” value [3] read?
A: exhibit an effect

Q: For `O=CNc1cnc(-c2ccccc2)n(CC(=O)NC(Cc2ccccc2)C(=O)C(=O)CCCOc2ccccn2)c1=O` (stereo not shown) [formula (III-I)], which “efficacy when orally administered to canine myocardial infarction models” value [4] is on record?
A: efficacious

Q: For `Cc1cc2nc(SCCCC(=O)O)n(Cc3cn(C)c4ccccc34)c2cc1C` [compound 182], which IC50 (human mast cell chymase; [5]) is on record?
A: 10 to 100 nM

Q: Which IC50 (human mast cell chymase; [5]) does the source give for `COc1ccc2nc(SCCCC(=O)O)n(Cc3csc4cccc(C)c34)c2c1` [compound 242] here?
A: 10 to 100 nM

Q: For `Cc1cc2nc(SCCCC(=O)O)n(Cc3cn(C)c4cccc(C)c34)c2cc1C` [compound 187], which IC50 (human mast cell chymase; [5]) is on record?
A: 10 to 100 nM

Q: Which IC50 (human mast cell chymase; [5]) does the source give for `COc1ccc2c(c1)nc(SCCCC(=O)O)n2Cc1csc2cccc(C)c12` [compound 62] here?
A: 10 to 100 nM

Q: With `Cn1cc(Cn2c(SCCCC(=O)O)nc3ccccc32)c2c(Cl)cccc21` [compound 9] as the compound, how does the IC50 (human mast cell chymase; [5]) read?
A: 10 to 100 nM

Q: With `O=C(O)CCCSc1nc2ccccc2n1Cc1csc2ccc(Cl)cc12` [compound 22] as the compound, how does the IC50 (human mast cell chymase; [5]) read?
A: 10 to 100 nM

Q: With `Cc1cc2nc(SCCCC(=O)O)n(Cc3csc4ccc(Cl)cc34)c2cc1C` [compound 202] as the compound, how does the IC50 (human mast cell chymase; [5]) read?
A: 10 to 100 nM

Q: Which “suppression of cardiac hypertrophy” value [1] does the source give for `CCCCC(=O)N(Cc1ccc(-c2ccccc2-c2nnn[nH]2)cc1)[C@H](C(=O)O)C(C)C` [Valsartan] here?
A: no notable suppression

Q: With `Cc1ccc2c(c1)c(Cn1c(SCCCC(=O)O)nc3ccccc31)cn2C` [compound 6] as the compound, how does the IC50 (human mast cell chymase; [5]) read?
A: 10 to 100 nM

Q: For `COc1ccc2nc(SCCCC(=O)O)n(Cc3csc4ccc(C)cc34)c2c1` [compound 240], which IC50 (human mast cell chymase; [5]) is on record?
A: 10 to 100 nM

Q: Which IC50 (human mast cell chymase; [5]) does the source give for `N#Cc1ccc2c(c1)nc(SCCCC(=O)O)n2Cc1csc2ccccc12` [compound 92] here?
A: 10 to 100 nM

Q: Which IC50 (human mast cell chymase; [5]) does the source give for `Cc1ccc2scc(Cn3c(SCCCC(=O)O)nc4ccccc43)c2c1` [compound 24] here?
A: 10 to 100 nM

Q: For `COc1ccc2c(c1)nc(SCCCC(=O)O)n2Cc1cn(C)c2cccc(Cl)c12` [compound 45], which IC50 (human mast cell chymase; [5]) is on record?
A: 10 to 100 nM

Q: For `O=C(O)CCCSc1nc2ccccc2n1Cc1csc2cccc(Cl)c12` [compound 27], which IC50 (human mast cell chymase; [5]) is on record?
A: 10 to 100 nM

Q: For `Cc1cc2nc(SCCCC(=O)O)n(Cc3cn(C)c4cccc(Cl)c34)c2cc1C` [compound 189], which IC50 (human mast cell chymase; [5]) is on record?
A: 10 to 100 nM

Q: Which IC50 (human mast cell chymase; [5]) does the source give for `Cc1ccc2c(c1)nc(SCCCC(=O)O)n2Cc1csc2ccccc12` [compound 128] here?
A: 10 to 100 nM

Q: With `[O-][S+](Cc1ccc(Cl)cc1)c1nnc(OCc2ccc(Cl)cc2)c2nccn12` (stereo not shown) [Compound B, reference compound] as the compound, how does the IC50 (human mast cell chymase; [6]) read?
A: 30 nM

Q: What about the “dye leakage” value (hamster chymase) of the same compound?
A: no clear suppressing action

Q: Which IC50 (human mast cell chymase; [5]) does the source give for `Cc1cc2nc(SCCCC(=O)O)n(Cc3csc4cccc(C)c34)c2cc1C` [compound 206] here?
A: 10 to 100 nM

Q: With `O=C1CN(c2ccc(Cl)cc2)C(=O)N1S(=O)(=O)c1ccc(Cl)cc1` [Compound A, reference compound] as the compound, how does the IC50 (human mast cell chymase; [6]) read?
A: 9 nM

Q: What about the “dye leakage” value (hamster chymase) of the same compound?
A: no clear suppressing action
